Assay results reported in ChEMBL document CHEMBL3612029, “Design, synthesis and anticancer activity of Michael-type thiol adducts of α-santonin analogue with exocyclic methylene” (Eur J Med Chem, 2015).

Experiments:
PC-3 = assay: Cytotoxicity against human PC3 cells assessed as growth inhibition after 48 hrs by sulphorhodamine B assay; type: functional, cell-based; conditions: PC-3, 48 h
MCF7 [1] = assay: Cytotoxicity against human MCF7 cells assessed as growth inhibition after 48 hrs by sulphorhodamine B assay; type: functional, cell-based; conditions: MCF7, 48 h
A549 = assay: Cytotoxicity against human A549 cells assessed as growth inhibition after 48 hrs by sulphorhodamine B assay; type: functional, cell-based; conditions: A549, 48 h
HCT-116 = assay: Cytotoxicity against human HCT116 cells assessed as growth inhibition after 48 hrs by sulphorhodamine B assay; type: functional, cell-based; conditions: HCT-116, 48 h
MCF7 [2] = assay: Cell cycle arrest in human MCF7 cells assessed as accumulation at subG1 phase after 24 hrs by propidium iodide staining-based flow cytometric analysis; type: functional
MCF7 [3] = assay: Cell cycle arrest in human MCF7 cells assessed as accumulation at subG1 phase at 1 uM after 24 hrs by propidium iodide staining-based flow cytometric analysis (reference value: 4.8%); type: functional
MCF7 [4] = assay: Cell cycle arrest in human MCF7 cells assessed as accumulation at subG1 phase at 1.5 uM after 24 hrs by propidium iodide staining-based flow cytometric analysis (reference value: 4.8%); type: functional
[5] = biological target: Transcription factor p65 (Homo sapiens) (UniProt Q04206); assay: Inhibition of NF-kappa-B p65 subunit binding to DNA response element in human MCF7 cell nuclear lysates after 24 hrs
Chain of Transcription factor p65 (Homo sapiens) (Q04206 whole entry): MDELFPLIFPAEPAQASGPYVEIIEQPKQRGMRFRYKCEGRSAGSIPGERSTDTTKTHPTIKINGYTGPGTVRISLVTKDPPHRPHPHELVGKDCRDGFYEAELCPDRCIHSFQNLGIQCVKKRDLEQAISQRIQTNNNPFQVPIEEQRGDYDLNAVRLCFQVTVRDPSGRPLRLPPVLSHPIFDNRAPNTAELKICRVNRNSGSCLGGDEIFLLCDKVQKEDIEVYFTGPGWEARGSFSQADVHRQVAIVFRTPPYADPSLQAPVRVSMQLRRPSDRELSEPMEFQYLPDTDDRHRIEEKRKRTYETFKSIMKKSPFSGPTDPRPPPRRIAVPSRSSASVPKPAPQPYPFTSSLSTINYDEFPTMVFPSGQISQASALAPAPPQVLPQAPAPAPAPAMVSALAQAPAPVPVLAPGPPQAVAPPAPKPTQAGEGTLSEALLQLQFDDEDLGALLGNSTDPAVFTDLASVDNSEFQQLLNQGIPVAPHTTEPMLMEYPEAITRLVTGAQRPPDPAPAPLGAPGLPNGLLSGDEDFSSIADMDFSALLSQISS

[6] = biological target: Transcription factor p65 (Homo sapiens) (UniProt Q04206); assay: Inhibition of NF-kappa-B p65 subunit binding to DNA response element in human MCF7 cell nuclear lysates at 1.5 uM after 24 hrs relative to control
[7] = biological target: Transcription factor p65 (Homo sapiens) (UniProt Q04206); assay: Inhibition of NF-kappa-B p65 subunit binding to DNA response element in human MCF7 cell nuclear lysates at 2 uM after 24 hrs relative to control
MCF7 [8] = assay: Cell cycle arrest in human MCF7 cells assessed as accumulation at subG1 phase at 5 uM after 24 hrs by propidium iodide staining-based flow cytometric analysis (reference value: 4.8%); type: functional

| Compound | IC50 (PC-3) [µM] | IC50 (MCF7 [1]) [µM] | IC50 (A549) [µM] | IC50 (HCT-116) [µM] | Activity (MCF7 [2]) | Activity (MCF7 [3]) [%] | Activity (MCF7 [4]) [%] | inhibition [5] | inhibition [6] [%] | inhibition [7] [%] | Activity (MCF7 [8]) [%] |
| --- | --- | --- | --- | --- | --- | --- | --- | --- | --- | --- | --- |
| CC1=C2[C@H]3OC(=O)[C@@H](CSc4ccc(F)cc4)[C@@H]3CC[C@@]2(C)C=CC1=O | 4.5 | 7.3 | 1.1 | 0.8 |  |  |  |  |  |  |  |
| COc1ccc(SC[C@@H]2C(=O)O[C@@H]3C4=C(C)C(=O)C=C[C@]4(C)CC[C@@H]23)cc1 | 13.1 | 21.4 | 8.9 | 24.9 |  |  |  |  |  |  |  |
| CC1=C2[C@H]3OC(=O)[C@@H](CSc4ccccc4N)[C@@H]3CC[C@@]2(C)C=CC1=O | 10.8 | 7.8 | 30.7 | 13 |  |  |  |  |  |  |  |
| CC1=C2[C@H]3OC(=O)[C@@H](C)[C@@H]3CC[C@@]2(C)C=CC1=O [SANTONIN] | > 50 | > 50 | > 50 | > 50 |  |  |  |  |  |  |  |
| CC1=C2[C@H]3OC(=O)[C@@H](CSc4ccccc4Cl)[C@@H]3CC[C@@]2(C)C=CC1=O | 9.1 | 23.2 | 6.6 | 16.6 |  |  |  |  |  |  |  |
| CC1=C2[C@H]3OC(=O)[C@@H](CSc4ncc[nH]4)[C@@H]3CC[C@@]2(C)C=CC1=O | 4.7 | 2.4 | 8.8 | 0.8 |  |  |  |  |  |  |  |
| CC1=C2[C@H]3OC(=O)[C@@H](CSc4ccc(C)cc4)[C@@H]3CC[C@@]2(C)C=CC1=O | 5.7 | 6 | 7.4 | 12.1 |  |  |  |  |  |  |  |
| CC1=C2[C@H]3OC(=O)[C@@H](CSc4ccc(F)c(F)c4)[C@@H]3CC[C@@]2(C)C=CC1=O | 2.9 | 1 | 5.9 | 0.7 |  |  |  |  |  |  |  |
| CC1=C2[C@H]3OC(=O)[C@@H](CSc4ccccc4C)[C@@H]3CC[C@@]2(C)C=CC1=O | 20.7 | 20.9 | 0.9 | 21.5 |  |  |  |  |  |  |  |
| CC1=C2[C@H]3OC(=O)[C@@H](CSc4ccc(Br)cc4)[C@@H]3CC[C@@]2(C)C=CC1=O | 1.5 | 0.6 | 2.4 | 1.2 | Dose-dependent effect | 36.8 | 44.5 | Dose-dependent effect | 45 | 57 |  |
| O=c1[nH]cc(F)c(=O)[nH]1 [FLUOROURACIL] |  |  |  | 4.5 |  |  |  |  |  |  |  |
| CC[C@@]1(O)C(=O)OCc2c1cc1n(c2=O)Cc2cc3ccccc3nc2-1 [CAMPTOTHECIN] |  |  |  |  |  |  |  |  |  |  | 52.4 |
| CC1=C2[C@H]3OC(=O)[C@@H](CSc4ccccc4)[C@@H]3CC[C@@]2(C)C=CC1=O | 25.9 | 25.2 | 19.8 | 19.1 |  |  |  |  |  |  |  |
